Laboratory results: ChEMBL document CHEMBL1201862, “PubChem BioAssay data set” (2004)
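Dose response: 5 concentrations. Exposure: 48 h. Format: 96-well plates. Endpoint: linear interpolation; highest concentration if not reached. GI50 is the concentration that inhibits growth by half.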 Active and inactive are the calls of the source. No stated cut-off is given here; in the data, active = GI50 up to about 1.1 µM and inactive = higher.

Assays:
Assay in all cases: inhibition of tumour cell growth, NCI panel, 48 h
786-0 = tested on: 786-0
A498 = tested on: A498
A549 = tested on: A549
ACHN = tested on: ACHN
BT-549 = tested on: BT-549
CAKI-1 = tested on: CAKI-1
CCRF-CEM = tested on: CCRF-CEM
COLO 205 = tested on: COLO 205
DU-145 = tested on: DU-145
EKVX = tested on: EKVX
HCC 2998 = tested on: HCC 2998
HCT-116 = tested on: HCT-116
HCT-15 = tested on: HCT-15
HL-60 = tested on: HL-60
HOP-62 = tested on: HOP-62
HOP-92 = tested on: HOP-92
HT-29 = tested on: HT-29
Hs-578T = tested on: Hs-578T
IGROV-1 = tested on: IGROV-1
K562 = tested on: K562
KM12 = tested on: KM12
LOX IMVI = tested on: LOX IMVI
M14 = tested on: M14
MCF7 = tested on: MCF7
MDA-MB-231 = tested on: MDA-MB-231
MDA-MB-435 = tested on: MDA-MB-435
MDA-N = tested on: MDA-N
MOLT-4 = tested on: MOLT-4
Malme-3M = tested on: Malme-3M
NCI-H226 = tested on: NCI-H226
NCI-H23 = tested on: NCI-H23
NCI-H460 = tested on: NCI-H460
NCI-H522 = tested on: NCI-H522
NCI/ADR-RES = tested on: NCI/ADR-RES
OVCAR-3 = tested on: OVCAR-3
OVCAR-4 = tested on: OVCAR-4
OVCAR-5 = tested on: OVCAR-5
OVCAR-8 = tested on: OVCAR-8
PC-3 = tested on: PC-3
RPMI-8226 = tested on: RPMI-8226
RXF 393 = tested on: RXF 393
SF-268 = tested on: SF-268
SF-295 = tested on: SF-295
SF-539 = tested on: SF-539
SK-MEL-28 = tested on: SK-MEL-28
SK-MEL-2 = tested on: SK-MEL-2
SK-MEL-5 = tested on: SK-MEL-5
SK-OV-3 = tested on: SK-OV-3
SN12C = tested on: SN12C
SNB-19 = tested on: SNB-19
SNB-75 = tested on: SNB-75
SR = tested on: SR
SW-620 = tested on: SW-620
T47D = tested on: T47D
TK-10 = tested on: TK-10
U-251 = tested on: U-251
UACC-257 = tested on: UACC-257
UACC-62 = tested on: UACC-62
UO-31 = tested on: UO-31

Structure (SMILES): O=C(O)C(F)(OC(F)(F)C(F)(OC(F)(F)C(F)(F)C(F)(F)F)C(F)(F)F)C(F)(F)F (stereo not drawn)
- GI50 (786-0): > 100 µM (inactive)
- GI50 (A498): > 100 µM (inactive)
- GI50 (A549): > 100 µM (inactive)
- GI50 (ACHN): > 100 µM (inactive)
- GI50 (BT-549): > 100 µM (inactive)
- GI50 (CAKI-1): > 100 µM (inactive)
- GI50 (CCRF-CEM): > 100 µM (inactive)
- GI50 (COLO 205): > 100 µM (inactive)
- GI50 (DU-145): > 100 µM (inactive)
- GI50 (EKVX): > 100 µM (inactive)
- GI50 (HCC 2998): > 100 µM (inactive)
- GI50 (HCT-116): > 100 µM (inactive)
- GI50 (HCT-15): > 100 µM
- GI50 (HL-60): > 100 µM (inactive)
- GI50 (HOP-62): > 100 µM (inactive)
- GI50 (HOP-92): 63.7 µM (inactive)
- GI50 (HT-29): > 100 µM (inactive)
- GI50 (Hs-578T): > 100 µM (inactive)
- GI50 (IGROV-1): > 100 µM (inactive)
- GI50 (K562): > 100 µM (inactive)
- GI50 (KM12): > 100 µM (inactive)
- GI50 (LOX IMVI): > 100 µM (inactive)
- GI50 (M14): > 100 µM (inactive)
- GI50 (MCF7): > 100 µM (inactive)
- GI50 (MDA-MB-231): > 100 µM (inactive)
- GI50 (MDA-MB-435): > 100 µM (inactive)
- GI50 (MDA-N): > 100 µM (inactive)
- GI50 (MOLT-4): > 100 µM (inactive)
- GI50 (Malme-3M): > 100 µM (inactive)
- GI50 (NCI-H226): > 100 µM (inactive)
- GI50 (NCI-H23): > 100 µM (inactive)
- GI50 (NCI-H460): > 100 µM (inactive)
- GI50 (NCI-H522): > 100 µM (inactive)
- GI50 (NCI/ADR-RES): > 100 µM (inactive)
- GI50 (OVCAR-3): > 100 µM (inactive)
- GI50 (OVCAR-4): > 100 µM (inactive)
- GI50 (OVCAR-5): > 100 µM (inactive)
- GI50 (OVCAR-8): > 100 µM (inactive)
- GI50 (PC-3): 59.7 µM (inactive)
- GI50 (RPMI-8226): > 100 µM (inactive)
- GI50 (RXF 393): > 100 µM (inactive)
- GI50 (SF-268): > 100 µM (inactive)
- GI50 (SF-295): > 100 µM (inactive)
- GI50 (SF-539): > 100 µM (inactive)
- GI50 (SK-MEL-28): > 100 µM (inactive)
- GI50 (SK-MEL-2): > 100 µM (inactive)
- GI50 (SK-MEL-5): > 100 µM (inactive)
- GI50 (SK-OV-3): > 100 µM (inactive)
- GI50 (SN12C): 78.5 µM (inactive)
- GI50 (SNB-19): > 100 µM (inactive)
- GI50 (SNB-75): > 100 µM (inactive)
- GI50 (SR): > 100 µM (inactive)
- GI50 (SW-620): > 100 µM (inactive)
- GI50 (T47D): > 100 µM (inactive)
- GI50 (TK-10): > 100 µM (inactive)
- GI50 (U-251): > 100 µM (inactive)
- GI50 (UACC-257): > 100 µM (inactive)
- GI50 (UACC-62): > 100 µM (inactive)
- GI50 (UO-31): > 100 µM (inactive)

Structure (SMILES): CC1(C)OCC(C2OC3OC(C)(C)OC3C2N)O1 (stereo not drawn)
- GI50 (786-0): > 100 µM (inactive)
- GI50 (A498): > 100 µM (inactive)
- GI50 (A549): > 100 µM (inactive)
- GI50 (ACHN): > 100 µM (inactive)
- GI50 (BT-549): > 100 µM (inactive)
- GI50 (CAKI-1): > 100 µM (inactive)
- GI50 (CCRF-CEM): > 100 µM (inactive)
- GI50 (COLO 205): > 100 µM (inactive)
- GI50 (DU-145): > 100 µM (inactive)
- GI50 (EKVX): > 100 µM (inactive)
- GI50 (HCC 2998): > 100 µM (inactive)
- GI50 (HCT-116): > 100 µM (inactive)
- GI50 (HCT-15): > 100 µM
- GI50 (HL-60): > 100 µM (inactive)
- GI50 (HOP-62): > 100 µM (inactive)
- GI50 (HOP-92): > 100 µM (inactive)
- GI50 (HT-29): > 100 µM (inactive)
- GI50 (Hs-578T): > 100 µM (inactive)
- GI50 (IGROV-1): > 100 µM (inactive)
- GI50 (K562): > 100 µM (inactive)
- GI50 (KM12): > 100 µM (inactive)
- GI50 (LOX IMVI): > 100 µM (inactive)
- GI50 (M14): > 100 µM (inactive)
- GI50 (MCF7): > 100 µM (inactive)
- GI50 (MDA-MB-231): > 100 µM (inactive)
- GI50 (MDA-MB-435): > 100 µM (inactive)
- GI50 (MDA-N): > 100 µM (inactive)
- GI50 (MOLT-4): > 100 µM (inactive)
- GI50 (Malme-3M): > 100 µM (inactive)
- GI50 (NCI-H226): > 100 µM (inactive)
- GI50 (NCI-H23): > 100 µM (inactive)
- GI50 (NCI-H460): > 100 µM (inactive)
- GI50 (NCI-H522): > 100 µM (inactive)
- GI50 (NCI/ADR-RES): > 100 µM (inactive)
- GI50 (OVCAR-3): > 100 µM (inactive)
- GI50 (OVCAR-4): > 100 µM (inactive)
- GI50 (OVCAR-5): > 100 µM (inactive)
- GI50 (OVCAR-8): > 100 µM (inactive)
- GI50 (PC-3): > 100 µM (inactive)
- GI50 (RPMI-8226): > 100 µM (inactive)
- GI50 (RXF 393): > 100 µM (inactive)
- GI50 (SF-268): > 100 µM (inactive)
- GI50 (SF-295): > 100 µM (inactive)
- GI50 (SF-539): > 100 µM (inactive)
- GI50 (SK-MEL-28): > 100 µM (inactive)
- GI50 (SK-MEL-2): > 100 µM (inactive)
- GI50 (SK-MEL-5): > 100 µM (inactive)
- GI50 (SK-OV-3): > 100 µM (inactive)
- GI50 (SN12C): > 100 µM (inactive)
- GI50 (SNB-19): > 100 µM (inactive)
- GI50 (SNB-75): > 100 µM (inactive)
- GI50 (SR): > 100 µM (inactive)
- GI50 (SW-620): > 100 µM (inactive)
- GI50 (T47D): > 100 µM (inactive)
- GI50 (TK-10): > 100 µM (inactive)
- GI50 (U-251): > 100 µM (inactive)
- GI50 (UACC-257): > 100 µM (inactive)
- GI50 (UACC-62): > 100 µM (inactive)
- GI50 (UO-31): > 100 µM (inactive)
